Assay results from ChEMBL document CHEMBL3045951, “Toxicities and sublethal effects of seven neonicotinoid insecticides on survival, growth and reproduction of imidacloprid-resistant cotton aphid, Aphis gossypii” (2011).
≈ marks a conversion by molar mass, not a printed value.

Assays:
Type in all cases: functional
Aphis gossypii [1] = experiment: Insecticidal activity against imidacloprid-resistant Aphis gossypii (cotton aphid) in cotton leaves assessed as longevity at LC20 concentration
Aphis gossypii [2] = system: Aphis gossypii
Description: Insecticidal activity against imidacloprid-resistant Aphis gossypii (cotton aphid) in cotton leaves assessed as inhibition of honeydew excretion at LC20 concentration measured after 72 hr by dipping method

Aphis gossypii [3] = experiment: Insecticidal activity against imidacloprid-resistant Aphis gossypii (cotton aphid) in cotton leaves assessed as mortality measured after 72 hr by dipping method
Aphis gossypii [4] = experiment: Resistance ratio, LC50 for Aphis gossypii RF45 (cotton aphid) to LC50 for Aphis gossypii SS
Aphis gossypii [5] = experiment: Insecticidal activity against imidacloprid-resistant Aphis gossypii RF45 (cotton aphid) in cotton leaves assessed as mortality measured after 48 hr by dipping method
Aphis gossypii [6] = experiment: Insecticidal activity against Aphis gossypii SS (cotton aphid) in cotton leaves assessed as mortality measured after 48 hr by dipping method
Aphis gossypii [7] = experiment: Insecticidal activity against cotton aphid Aphis gossypii F33 (cotton aphid) in cotton leaves assessed as mortality measured after 48 hr by dipping method
Aphis gossypii [8] = experiment: Insecticidal activity against cotton aphid Aphis gossypii F27 (cotton aphid) in cotton leaves assessed as mortality measured after 48 hr by dipping method
Aphis gossypii [9] = experiment: Insecticidal activity against cotton aphid Aphis gossypii F24 (cotton aphid) in cotton leaves assessed as mortality measured after 48 hr by dipping method
Aphis gossypii [10] = experiment: Insecticidal activity against cotton aphid Aphis gossypii F21 (cotton aphid) in cotton leaves assessed as mortality measured after 48 hr by dipping method
Aphis gossypii [11] = experiment: Insecticidal activity against cotton aphid Aphis gossypii F15 (cotton aphid) in cotton leaves assessed as mortality measured after 48 hr by dipping method
Aphis gossypii [12] = experiment: Insecticidal activity against cotton aphid Aphis gossypii F18 (cotton aphid) in cotton leaves assessed as mortality measured after 48 hr by dipping method
Aphis gossypii [13] = experiment: Insecticidal activity against cotton aphid Aphis gossypii F12 (cotton aphid) in cotton leaves assessed as mortality measured after 48 hr by dipping method
Aphis gossypii [14] = experiment: Insecticidal activity against cotton aphid Aphis gossypii F6 (cotton aphid) in cotton leaves assessed as mortality measured after 48 hr by dipping method
Aphis gossypii [15] = experiment: Insecticidal activity against cotton aphid Aphis gossypii F0 (cotton aphid) in cotton leaves assessed as mortality measured after 48 hr by dipping method
Aphis gossypii [16] = experiment: Resistance ratio, LC50 for Aphis gossypii F42 (cotton aphid) to LC50 for Aphis gossypii F0
Aphis gossypii [17] = experiment: Resistance ratio, LC50 for Aphis gossypii F45 (cotton aphid) to LC50 for Aphis gossypii F0
Aphis gossypii [18] = experiment: Resistance ratio, LC50 for Aphis gossypii F39 (cotton aphid) to LC50 for Aphis gossypii F0
Aphis gossypii [19] = experiment: Resistance ratio, LC50 for Aphis gossypii F36 (cotton aphid) to LC50 for Aphis gossypii F0
Aphis gossypii [20] = experiment: Resistance ratio, LC50 for Aphis gossypii F30 (cotton aphid) to LC50 for Aphis gossypii F0
Aphis gossypii [21] = experiment: Resistance ratio, LC50 for Aphis gossypii F33 (cotton aphid) to LC50 for Aphis gossypii F0
Aphis gossypii [22] = experiment: Resistance ratio, LC50 for Aphis gossypii F27 (cotton aphid) to LC50 for Aphis gossypii F0
Aphis gossypii [23] = experiment: Resistance ratio, LC50 for Aphis gossypii F21 (cotton aphid) to LC50 for Aphis gossypii F0
Aphis gossypii [24] = experiment: Resistance ratio, LC50 for Aphis gossypii F24 (cotton aphid) to LC50 for Aphis gossypii F0
Aphis gossypii [25] = experiment: Resistance ratio, LC50 for Aphis gossypii F18 (cotton aphid) to LC50 for Aphis gossypii F0
Aphis gossypii [26] = experiment: Resistance ratio, LC50 for Aphis gossypii F15 (cotton aphid) to LC50 for Aphis gossypii F0
Aphis gossypii [27] = experiment: Resistance ratio, LC50 for Aphis gossypii F12 (cotton aphid) to LC50 for Aphis gossypii F0
Aphis gossypii [28] = experiment: Resistance ratio, LC50 for Aphis gossypii F9 (cotton aphid) to LC50 for Aphis gossypii F0
Aphis gossypii [29] = experiment: Resistance ratio, LC50 for Aphis gossypii F6 (cotton aphid) to LC50 for Aphis gossypii F0
Aphis gossypii [30] = experiment: Resistance ratio, LC50 for Aphis gossypii F3 (cotton aphid) to LC50 for Aphis gossypii F0
Aphis gossypii [31] = experiment: Insecticidal activity against cotton aphid Aphis gossypii F9 (cotton aphid) in cotton leaves assessed as mortality measured after 48 hr by dipping method
Aphis gossypii [32] = experiment: Insecticidal activity against cotton aphid Aphis gossypii F3 (cotton aphid) in cotton leaves assessed as mortality measured after 48 hr by dipping method
Aphis gossypii [33] = experiment: Insecticidal activity against cotton aphid Aphis gossypii F45 (cotton aphid) in cotton leaves assessed as mortality measured after 48 hr by dipping method
Aphis gossypii [34] = experiment: Insecticidal activity against cotton aphid Aphis gossypii F42 (cotton aphid) in cotton leaves assessed as mortality measured after 48 hr by dipping method
Aphis gossypii [35] = experiment: Insecticidal activity against cotton aphid Aphis gossypii F36 (cotton aphid) in cotton leaves assessed as mortality measured after 48 hr by dipping method
Aphis gossypii [36] = experiment: Insecticidal activity against cotton aphid Aphis gossypii F39 (cotton aphid) in cotton leaves assessed as mortality measured after 48 hr by dipping method
Aphis gossypii [37] = experiment: Insecticidal activity against cotton aphid Aphis gossypii F30 (cotton aphid) in cotton leaves assessed as mortality measured after 48 hr by dipping method

SMILES: CN/C(=N\[N+](=O)[O-])NCc1cnc(Cl)s1 [CLOTHIANIDINE]
- Survival (Aphis gossypii [1]): 6.61 days
- inhibition (INH) (Aphis gossypii [2]): 72.7%
- LC20 (Aphis gossypii [3]): 1.23 µg/mL (≈ 4.93 µM)
- RatioLC50 (Aphis gossypii [4]): 1.2
- LC50 (Aphis gossypii [5]): 2.18 microg/mL2
- LC50 (Aphis gossypii [6]): 1.82 microg/mL2

SMILES: CN/C(=N/CC1CCOC1)N[N+](=O)[O-] (stereo not drawn) [DINOTEFURAN]
- Survival (Aphis gossypii [1]): 2.95 days
- inhibition (INH) (Aphis gossypii [2]): 82.2%
- LC20 (Aphis gossypii [3]): 0.88 µg/mL (≈ 4.35 µM)
- RatioLC50 (Aphis gossypii [4]): 1.07
- LC50 (Aphis gossypii [5]): 1.29 microg/mL2
- LC50 (Aphis gossypii [6]): 1.2 microg/mL2

SMILES: CCN(Cc1ccc(Cl)nc1)/C(=C/[N+](=O)[O-])NC [NITENPYRAM]
- Survival (Aphis gossypii [1]): 8.42 days
- inhibition (INH) (Aphis gossypii [2]): 28.3%
- LC20 (Aphis gossypii [3]): 10.5 µg/mL (≈ 38.8 µM)
- RatioLC50 (Aphis gossypii [4]): 5.78
- LC50 (Aphis gossypii [5]): 14.3 microg/mL2
- LC50 (Aphis gossypii [6]): 2.47 microg/mL2

SMILES: O=[N+]([O-])/N=C1\NCCN1Cc1ccc(Cl)nc1 [IMIDACLOPRID]
- Survival (Aphis gossypii [1]): 13.6 days
- inhibition (INH) (Aphis gossypii [2]): 23.4%
- LC50 (Aphis gossypii [7]): 10.7 microg/mL2
- LC50 (Aphis gossypii [8]): 7.1 microg/mL2
- LC50 (Aphis gossypii [9]): 6.35 microg/mL2
- LC50 (Aphis gossypii [10]): 5.17 microg/mL2
- LC50 (Aphis gossypii [11]): 3.34 microg/mL2
- LC50 (Aphis gossypii [12]): 4.2 microg/mL2
- LC50 (Aphis gossypii [13]): 2.41 microg/mL2
- LC50 (Aphis gossypii [14]): 1.23 microg/mL2
- LC50 (Aphis gossypii [15]): 0.32 microg/mL2
- LC20 (Aphis gossypii [3]): 10.6 µg/mL (≈ 41.5 µM)
- RatioLC50 (Aphis gossypii [4]): 41.7
- LC50 (Aphis gossypii [5]): 13.5 microg/mL2
- LC50 (Aphis gossypii [6]): 0.32 microg/mL2
- RatioLC50 (Aphis gossypii [16]): 41.1
- RatioLC50 (Aphis gossypii [17]): 41.7
- RatioLC50 (Aphis gossypii [18]): 39.3
- RatioLC50 (Aphis gossypii [19]): 38.2
- RatioLC50 (Aphis gossypii [20]): 28.5
- RatioLC50 (Aphis gossypii [21]): 33.4
- RatioLC50 (Aphis gossypii [22]): 22.2
- RatioLC50 (Aphis gossypii [23]): 16.2
- RatioLC50 (Aphis gossypii [24]): 19.8
- RatioLC50 (Aphis gossypii [25]): 13.1
- RatioLC50 (Aphis gossypii [26]): 10.4
- RatioLC50 (Aphis gossypii [27]): 7.53
- RatioLC50 (Aphis gossypii [28]): 4.81
- RatioLC50 (Aphis gossypii [29]): 3.84
- RatioLC50 (Aphis gossypii [30]): 1.72
- LC50 (Aphis gossypii [31]): 1.54 microg/mL2
- LC50 (Aphis gossypii [32]): 0.55 microg/mL2
- LC50 (Aphis gossypii [33]): 13.5 microg/mL2
- LC50 (Aphis gossypii [34]): 13.2 microg/mL2
- LC50 (Aphis gossypii [35]): 12.2 microg/mL2
- LC50 (Aphis gossypii [36]): 12.6 microg/mL2
- LC50 (Aphis gossypii [37]): 9.12 microg/mL2

SMILES: N#C/N=C1\SCCN1Cc1ccc(Cl)nc1 [THIACLOPRID]
- Survival (Aphis gossypii [1]): 10.6 days
- inhibition (INH) (Aphis gossypii [2]): 36.9%
- LC20 (Aphis gossypii [3]): 5.45 µg/mL (≈ 21.6 µM)
- RatioLC50 (Aphis gossypii [4]): 3.68
- LC50 (Aphis gossypii [5]): 8.69 microg/mL2
- LC50 (Aphis gossypii [6]): 2.36 microg/mL2

SMILES: CN1COCN(Cc2cnc(Cl)s2)/C1=N\[N+](=O)[O-] [THIAMETHOXAM]
- Survival (Aphis gossypii [1]): 6.78 days
- inhibition (INH) (Aphis gossypii [2]): 73.7%
- LC20 (Aphis gossypii [3]): 0.96 µg/mL (≈ 3.29 µM)
- RatioLC50 (Aphis gossypii [4]): 1.06
- LC50 (Aphis gossypii [5]): 1.69 microg/mL2
- LC50 (Aphis gossypii [6]): 1.6 microg/mL2

SMILES: C/C(=N\C#N)N(C)Cc1ccc(Cl)nc1 [ACETAMIPRID]
- Survival (Aphis gossypii [1]): 11.4 days
- inhibition (INH) (Aphis gossypii [2]): 40.2%
- LC20 (Aphis gossypii [3]): 8.36 µg/mL (≈ 37.5 µM)
- RatioLC50 (Aphis gossypii [4]): 4.52
- LC50 (Aphis gossypii [5]): 12.4 microg/mL2
- LC50 (Aphis gossypii [6]): 2.73 microg/mL2
